According to publication PMC5698418 (Nature Communications, 2017):
“And” between values parts separate entries of the source, which are not always exact repeats. Identical values can stand only once. Like-named read-outs stand apart in the source and are kept apart here. Non-standard residues stand in square brackets, D forms with d. Residues, ends and D or L forms follow the SMILES beside them. dTrp(2-Me) = Cc1[nH]c2ccccc2c1C[C@@H](N)C(=O)O

Test system: BDNF-induced nuclear Arc expression in primary cortical neurons
Assay: Chemogenomic screen: high-content image-based assay of BDNF-induced nuclear Arc expression (96-well)
Format: cell-based, mouse
Experimental: To increase the throughput of our pharmacological screening for modulators of Arc, the above mentioned assay was adapted to cultures of mouse primary cortical neurons in 96-well plates.
All 319 compounds were initially tested at a final concentration of 16.7 µM with three biological replicates.
Screening of compounds in the chemogenomic library was carried out using DIV13 primary forebrain cortical neurons cultured on poly-L-lysine/laminin-coated 96-well plates (Ibidi USA, Madison, WI). Cells were seeded at a density of 30,000 cells per well and treated with the compound library and BDNF according to the experimental design presented in Fig. 3a. After experimental treatment, cells were processed for Arc and acetyl-H3K9 immunocytochemistry according to the protocol described above. Both antigens (Arc and acetyl-H3K9) were imaged using an IN Cell Analyzer 6000 imaging system and a ×40 objective. […] High-throughput quantification of nuclear Arc immunofluorescence signal was performed in a similar fashion than the low-throughput procedure described above but with the exception that acetyl-H3K9 was used as a nuclear mask to guide the automated quantification of nuclear Arc immunofluorescence signal.

[1] = chemogenomic (SMART) screen, BDNF-induced nuclear Arc expression, primary cortical neurons, BDNF control 19.5
[2] = nuclear Arc-positive cells relative to DMSO + BDNF control, negative values = decrease
[3] = BDNF-induced nuclear Arc expression, primary cortical neurons, chemogenomic screen

| Compound | Percentage of cell with nuclear Arc immunostaining above 2σ threshold [1] | Fold-change — Normalized to DMSO control (BDNF) [2] | other results |
| --- | --- | --- | --- |
| CCN1CCC[C@H]1CNC(=O)c1c(OC)ccc(Br)c1OC [Remoxipride] | 35.4% | 1.8 fold | – |
| CC[N+](CC)(CCNC(=O)C(=O)NCC[N+](CC)(CC)Cc1ccccc1Cl)Cc1ccccc1Cl [Ambenonium] | – | – | Percentage of cell with nuclear Arc immunostaining above 2σ threshold: 15.1% |
| O=C(c1ccc(F)cc1)C1CCN(CCn2c(=O)[nH]c3ccccc3c2=O)CC1 [Ketanserin] | 20.4% | 1.0 fold | – |
| CHIR-98014 | – | – | Fold-change — Normalized to DMSO control (BDNF): -1.0 fold; Percentage of cell with nuclear Arc immunostaining above 2σ threshold: 19.2% |
| CN1C(=O)CC[C@H]1c1cccnc1 [Cotinine] | 30.8% | 1.6 fold | – |
| Cc1[nH]c2ccccc2c1C[C@@H](NC(=O)[C@@H](N)Cc1cnc[nH]1)C(=O)N[C@@H](C)C(=O)N[C@@H](Cc1c[nH]c2ccccc12)C(=O)N[C@H](Cc1ccccc1)C(=O)N[C@@H](CCCCN)C(N)=O [Hexarelin] (H-H[dTrp(2-Me)]AW[dF]K-NH2) | 17.9% | -1.1 fold | – |
| CN1CCC(=C2c3ccccc3CC(=O)c3sccc32)CC1 [Ketotifen] | 12.3% | – | – |
| Cc1nccn1CC1CCc2c(c3ccccc3n2C)C1=O (centres unmarked) [Ondansetron] | 37.6% | 1.9 fold | – |
| CN(CCOc1ccc(CC2SC(=O)NC2=O)cc1)c1ccccn1 (centres unmarked) [Rosiglitazone] | 29.8% | 1.5 fold | – |
| LM22A-4 | 14.0% | -1.4 fold | – |
| O=C(O)CNC(=O)c1c(O)c2ccccc2n(Cc2ccccc2)c1=O [IOX2] | 45.4% | 2.3 fold | – |
| O=C1NCCN1CCN1CCC(c2cn(-c3ccc(F)cc3)c3ccc(Cl)cc23)CC1 [Sertindole] | – | – | Percentage of cell with nuclear Arc immunostaining above 2σ threshold [3]: 0.18% |
| CC(C)CNC(=O)/C=C/C=C/c1ccc2c(c1)OCO2 [Piperlonguminine] | 23.0% | 1.2 fold | – |
| CN1C(=O)CCS(=O)(=O)C1c1ccc(Cl)cc1 (centres unmarked) [Chlormezanone] | – | 1.3 fold | Percentage of cell with nuclear Arc immunostaining above 2σ threshold: 25.9% |
| O=c1[nH]c2cc(C(F)(F)F)c(N3CCOCC3)cc2n(CP(=O)(O)O)c1=O [Fanapanel] | – | – | Percentage of cell with nuclear Arc immunostaining above 2σ threshold [3]: 8.8% |
| COc1cc(C(C)=O)ccc1OCCCN1CCC(c2noc3cc(F)ccc23)CC1 [Iloperidone] | – | – | Percentage of cell with nuclear Arc immunostaining above 2σ threshold [3]: 8.3% |
| CCOC(=O)[C@H](CCc1ccccc1)N[C@@H](C)C(=O)N1CCC[C@H]1C(=O)O [Enalapril] | 22.4% | 1.1 fold | – |
| OCCCCC#Cc1cncc(OC[C@@H]2CCN2)c1 [Sazetidine A] | – | 1.8 fold | Percentage of cell with nuclear Arc immunostaining above 2σ threshold: 35.2% |
| COc1ccc2c3c([nH]c2c1)C(C)=NCC3 [Harmaline] | – | 1.5 fold | Percentage of cell with nuclear Arc immunostaining above 2σ threshold: 28.8% |
| CNS(=O)(=O)Cc1ccc2[nH]cc(CCN(C)C)c2c1 [Sumatriptan succinate] | 23.4% | 1.2 fold | – |
| CN(C)CCC=C1c2ccccc2C=Cc2ccccc21 [Cyclobenzaprine] | 14.1% | – | – |
| Eburnamonine (-) | 18.5% | -1.1 fold | – |
| Cc1nc(C(=O)NCC(=O)O)c(O)c2ccc(Oc3ccccc3)cc12 [FG-4592] | 26.8% | 1.4 fold | – |
| CN(C)CCCOc1nn(Cc2ccccc2)c2ccccc12 [Benzydamine] | 25.2% | 1.3 fold | – |

| Compound | Percentage of cell with nuclear Arc immunostaining above 2σ threshold [1] | Fold-change — Normalized to DMSO control (BDNF) [2] | other results |
| --- | --- | --- | --- |
| O=c1c(-c2ccc(O)cc2)coc2cc(O)cc(O)c12 [Genistein] | 31.7% | 1.6 fold | – |
| O=C(O)C1CCCNC1 (centres unmarked) [Nipecotic acid] | – | 1.4 fold | Percentage of cell with nuclear Arc immunostaining above 2σ threshold: 26.3% |
| CN1CCN(CCCN2c3ccccc3Sc3ccc(Cl)cc32)CC1 [Prochlorperazine] | – | – | Percentage of cell with nuclear Arc immunostaining above 2σ threshold [3]: 0.375% |
| O=C(c1ccccc1)c1ccc2n1CCC2C(=O)O (centres unmarked) [Ketorolac] | 36.8% | 1.9 fold | – |
| CN(C)CCc1c[nH]c2ccc(C[C@H]3COC(=O)N3)cc12 [Zolmitriptan] | 42.5% | 2.2 fold | – |
| COc1cc(/C=C/C(=O)C(=Cc2ccc(F)c(F)c2)C(=O)/C=C/c2ccc(O)c(OC)c2)ccc1O [3,4-Difluorobenzocurcumin] | – | – | Percentage of cell with nuclear Arc immunostaining above 2σ threshold [3]: 1.4%; Fold-change — Normalized to DMSO control (BDNF) (nuclear Arc-positive cells relative to DMSO control (BDNF), negative = decrease): -14.1 fold |
| Cc1nc2n(c(=O)c1CCN1CCC(c3noc4cc(F)ccc34)CC1)CCCC2O (centres unmarked) [Paliperidone] | 15.2% | – | – |
| NC(=O)C1=CN([C@@H]2O[C@H](COP(=O)(O)OP(=O)(O)OC[C@H]3O[C@@H](n4cnc5c(N)ncnc54)[C@H](O)[C@@H]3O)[C@@H](O)[C@H]2O)C=CC1 [NADH] | 25.0% | 1.3 fold | – |
| Cn1c(=O)c2c(ncn2CC(O)CO)n(C)c1=O (centres unmarked) [Dyphylline] | 17.0% | – | – |
| O=c1[nH]c2ccccc2n1C1CCN(CCCC(c2ccc(F)cc2)c2ccc(F)cc2)CC1 [Pimozide] | – | – | Percentage of cell with nuclear Arc immunostaining above 2σ threshold [3]: 1.1% |
| CC(C)(C)OC(=O)c1ncn2c1[C@@H]1CCCN1C(=O)c1c(Br)cccc1-2 [Bretazenil] | – | 2.0 fold | Percentage of cell with nuclear Arc immunostaining above 2σ threshold: 39.0% |
| CCCN(CCC)CCc1cccc2c1CC(=O)N2 [Ropinirole] | 14.2% | – | – |
| O=c1c(-c2ccc(O)cc2)coc2cc(O)ccc12 [Daidzein] | 40.8% | 2.1 fold | – |
| Cc1ccc2c(c1)c1c(n2CCc2ccc(C)nc2)CCN(C)C1 [Latrepirdine] | 34.3% | 1.8 fold | – |
| C[C@@](Cc1ccc(O)c(O)c1)(NN)C(=O)O [Carbidopa] | 36.1% | 1.9 fold | – |
| CCOC(=O)c1cncn1[C@H](C)c1ccccc1 [Etomidate] | – | – | Percentage of cell with nuclear Arc immunostaining above 2σ threshold: 13.0% |
| COc1cccc([C@H](O)C2CCN(CCc3ccc(F)cc3)CC2)c1OC [Volinanserin] | – | – | Percentage of cell with nuclear Arc immunostaining above 2σ threshold [3]: 9.0% |
| O=c1cc(-c2ccc(O)c(O)c2)oc2cc(O)cc(O)c12 [Luteolin] | 22.1% | 1.1 fold | – |
| O=C(O)C(Cc1c[nH]c2ccccc12)N1C(=O)c2ccccc2C1=O (centres unmarked) [RG-108] | – | 1.8 fold and 1.4 fold | Percentage of cell with nuclear Arc immunostaining above 2σ threshold: 35.1% and 27.5% |
| C[S+](CC[C@H](N)C(=O)[O-])C[C@H]1O[C@@H](n2cnc3c(N)ncnc32)[C@H](O)[C@@H]1O (some centres unmarked) [S-Adenosylmethionine] | 12.8% | – | – |
| CN(C)CC/C=C1\c2ccccc2CSc2ccccc21 [Dosulepin] | 16.7% | – | – |
| CCSc1ccc2c(c1)N(CCCN1CCN(C)CC1)c1ccccc1S2 [Thiethylperazine] | – | – | Percentage of cell with nuclear Arc immunostaining above 2σ threshold [3]: 0.529% |
| O=c1cc(-c2ccccc2)oc2c(O)c(O)ccc12 [7,8-Dihydroxyflavone] | 32.7% | 1.7 fold | – |
| C#CCN(C)[C@H](C)Cc1ccccc1 [Selegiline] | – | 1.5 fold | Percentage of cell with nuclear Arc immunostaining above 2σ threshold: 29.8% |
